PubChem BioAssay AID504672 (Sanford-Burnham Center for Chemical Genomics, 2011)
Active and inactive are the calls of the source. Rule as the data show it: active = IC50 below about 71 µM; inactive = the rest.

Tested on: S. cerevisiae tim10 strain, luminescence counterscreen
Assay: TIM10 strain luminescence inhibitors – S. cerevisiae, uHTS hits, counter-screen for tim23-1 inhibitor project, dose response (AID 504672);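 also: yeast grew roughly 22 hours at 25 °C before the luminescence read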

Row | SMILES | IC50
1 | CSc1nnc(C)c(/C=C/NOCc2ccc(Cl)cc2)n1 | 5.56 µM
2 | O=[N+]([O-])c1ccccc1S(=O)(=O)Nc1cccc2cccnc12 | 13.9 µM
3 | Cc1ccc(Nc2nc(-c3cccnc3)nc3ccccc23)cc1 | 65.8 µM
4 | Cc1cc(=O)oc2c1c(C(F)(F)F)nn2-c1ccccc1 | 6.41 µM
5 | N=c1c2c(-c3ccccc3)c(-c3ccccc3)n(Cc3ccco3)c2ncn1Cc1ccco1 | 14.6 µM
6 | COC(=O)N/N=C/c1ccc(-c2cc(Cl)cc(Cl)c2)o1 | 18 µM
7 | COc1cc(/C=N/NC(=O)c2ccc(N)cc2)ccc1OC(=O)c1cccc(C)c1 | 7.44 µM
8 | O=C(Nc1ccc2oc(-c3ccccc3)nc2c1)c1cccs1 | < 0.2 µM
9 | Cc1nc(-c2ccc(NC(=O)c3ccccc3)cc2)cs1 | 8.18 µM
10 | Cc1ccc(CS(=O)(=O)c2ncc(Cl)c(C(=O)Nc3ccc(OC(F)F)cc3)n2)cc1 | 5.88 µM
11 | CCCC(=O)NC(c1ccc(C(C)C)cc1)c1ccc2cccnc2c1O (stereo not given) | 7.76 µM
12 | Oc1ccc(Br)cc1/C=N/Nc1ccccn1 | 5.94 µM
13 | C=CCNC(=O)c1ccc2c3n(nc2c1)-c1ccc(Cl)cc1CO3 | 8.34 µM
14 | CC(C)(C)c1ccc(OCC(=O)NCc2ccco2)c(Br)c1 | 12.2 µM
15 | c1ccc(N=Nc2cn[nH]c2-c2ccco2)cc1 | 20.8 µM
16 | COC(=O)c1ccc2nc(NC(=O)C3CC3)sc2c1 | 15.3 µM
17 | O=C(COC(=O)CC1CCCC1)Nc1ccc(Cl)cc1 | 7.89 µM
18 | CC(=O)Nc1cccc(-c2cc(-c3c(Cl)cccc3Cl)no2)c1 | 8.63 µM
19 | Brc1ccc(-n2cnc(-c3ccccc3)c2)cc1 | 17.4 µM
20 | O=C1/C(=C/c2ccncc2)SC(=S)N1C1CCCCC1 | 27.4 µM
21 | CCC(C)c1ccc(NC(=O)C2CC3CCC2C3)cc1 (stereo not given) | 19.4 µM
22 | COc1cc(OC)cc(C(=O)Nc2ccc(Nc3ccccc3)cc2)c1 | 27.3 µM
23 | CC1CCN(c2ccc(-c3cccs3)nn2)CC1 | 8.39 µM
24 | CCSc1ncc(/C=N/Nc2ccc(Cl)cc2)n1C | 10.9 µM
25 | Cc1cccc(N2C(=O)c3ccc(Br)cc3C2=O)n1 | 7.58 µM

Row | SMILES | IC50
26 | C[C@@]12C(=O)Nc3ccc(Br)cc3C(=O)N1[C@H]1c3ccccc3OC[C@@H]1[C@@H]2c1ccccc1 | 3.81 µM
27 | CCOC(=O)c1c(N)sc(C(=O)Nc2ccccc2)c1C | 2.25 µM
28 | Cc1ccc(NC(=O)c2nc(S(=O)(=O)Cc3ccccc3C)ncc2Cl)cc1C | 5.94 µM
29 | Cc1cc2cc(CNC(=O)c3ccc(C)c([N+](=O)[O-])c3)ccc2[nH]1 | 31 µM
30 | CN1C(=O)C(=Cc2ccccc2OS(=O)(=O)c2ccccc2)C(=O)N(C)C1=O | 5.92 µM
31 | CO/C(N)=C(\C#N)N=Cc1ccccc1Cl | 77.2 µM
32 | Cc1cc(C)nc(SCC(=O)c2cc3ccccc3oc2=O)n1 | 32.1 µM
33 | CCOC(=O)c1cnc(-n2nc(C)cc2C)nc1NCCc1ccccc1 | 8.35 µM
34 | COc1cc2c3c(c1)C(C)CC(C)(C)N3C(=O)C2=O (stereo not given) | 13.8 µM
35 | CC(C)n1cc(NC(=O)c2cc(-c3ccccc3)on2)cn1 | 14.3 µM
36 | CC1(C)CC(=O)C=C(c2cccc(Cl)c2O)C1 | 13.1 µM
37 | COc1ccc(C(C[N+](=O)[O-])c2c(-c3ccccc3)cc3ccccn23)cc1OC (stereo not given) | 21 µM
38 | Cc1nc2ccc(C(C(F)(F)F)(C(F)(F)F)C(F)(F)F)cc2[nH]1 | 19.9 µM
39 | COc1ccc(NC(=O)Nc2nc3c(s2)CCCC3)cc1 | 14.5 µM
40 | O=C(N/N=C/c1ccc(Br)s1)c1cccs1 | 22.9 µM
41 | CC(=O)Nc1ncnc2c1c(-c1ccc(Cl)cc1)nn2C(C)(C)C | 9.62 µM
42 | CCc1cccc2c(C(=O)CCl)c[nH]c12 | 25.1 µM
43 | CC(C)Cn1cnc2c(c(-c3ccccc3)c(-c3ccccc3)n2Cc2ccco2)c1=N | 42.3 µM
44 | COc1ccc(S(=O)(=O)CC(=O)c2cc3cccc(C)c3oc2=O)cc1 | 15.4 µM
45 | O=C(NCCCc1ccccc1)Nc1cccc(Cl)c1 | 5.13 µM
46 | CC(C)c1nc(NCCO)c(C#N)c2c1CCCC2 | 18.5 µM
47 | Cc1nc2nc(-c3cccs3)[nH]c2cc1Br | 14.9 µM
48 | N#C/C(=C\c1ccc(Cl)cc1)C(=O)Nc1cccnc1 | 24.3 µM
49 | CCCCCCn1c(=O)c(-c2ccccc2)c(O)c2ccccc21 | 11.4 µM
50 | Cc1ccc2nc(NC(=O)Cn3nc(C)c([N+](=O)[O-])c3C)sc2c1 | 18.2 µM

Row | SMILES | IC50
51 | Brc1ccc(OCc2nnnn2-c2ccccc2)cc1 | 11 µM
52 | COc1ccc(-c2cc(-c3ccccc3O)[nH]n2)cc1 | 12.4 µM
53 | COc1ccc(NCc2ccc([N+](=O)[O-])s2)cc1 | 6.42 µM
54 | O=C(Nc1nsc(-c2ccccc2)n1)c1cccs1 | 6.65 µM
55 | CN(C)/C=C1/C=C(c2ccccc2)OC1=O | 36.8 µM
56 | Cc1ccc2nc(N3C(=O)CNC3=S)sc2c1 | 21.1 µM
57 | Cc1oc2cc(O)cc(O)c2c(=O)c1-c1ccc2c(c1)OCCCO2 | 10.7 µM
58 | O=C(Nc1cccc(NC(=O)c2cccs2)c1)c1ccc(Br)o1 | 15 µM
59 | COC(=O)c1c(-c2ccc(S(C)(=O)=O)cc2)sc2ccc(OC)cc12 | 11.4 µM
60 | N#C/C(=C\c1ccc(Cl)cc1)C(=O)NC1CC1 | 9.67 µM
61 | Cc1[nH]c2ccccc2c1C(=O)/C=C/c1ccccc1 | 12.9 µM
62 | CCc1ccc(NC(=O)/C(C#N)=C/c2ccncc2)cc1 | 12.6 µM
63 | c1ccc(-c2cc3ccccc3cn2)cc1 | 7.8 µM
64 | O=c1c2ccccc2[nH]c(=S)n1CCN1CCC(=C(c2ccc(F)cc2)c2ccc(F)cc2)CC1 | 12.7 µM
65 | N#C/C(=C\c1ccc(O)cc1)c1nc2ccccc2o1 | 17.6 µM
66 | COc1cccc(C(=O)Nc2ccccc2)c1 | 24.4 µM
67 | N#Cc1c(-c2ccccc2)cc(-c2ccc(O)cc2)nc1N | 9.91 µM
68 | O=C(Nc1ccc(-c2cn3c(n2)SCC3)cc1)c1ccco1 | 38.3 µM
69 | Cc1ccc2c(c1)C(=O)N1[C@H]3c4ccccc4OC[C@@H]3[C@H](c3ccccc3)[C@]1(C)C(=O)N2 | 3.54 µM
70 | COc1cc(NC(=O)c2cccs2)ccc1NC(=O)c1ccccc1Cl | 16.2 µM
71 | O=C(Oc1ccc(=O)n(-c2ccccc2)n1)c1ccc(Cl)cc1 | 34.7 µM
72 | Cc1cc(Nc2ccccc2)nn1C(=O)c1ccccc1 | 11.3 µM
73 | O=C(/C=C/c1ccccc1Cl)Nc1ccccc1 | 44.7 µM
74 | O=C(Nc1ccc(F)c(Cl)c1)c1ccccc1 | 5.55 µM
75 | N#C/C(N)=C(/C#N)N=Cc1cccc(Cl)c1 | 14.2 µM

Row | SMILES | IC50
76 | O=C(Nc1ccc2c(c1)OCCO2)c1cccc(Cl)c1 | 21.5 µM
77 | Cc1csc2nc(O)c(C(=O)NC3CCCCC3)c(=O)n12 | 9.27 µM
78 | O=C(Nc1ccc(-c2cn3ccccc3n2)cc1)c1ccco1 | 17.5 µM
79 | COc1cc2c(cc1OC)/C(=C/c1ccc(Cl)cc1)C(=O)OC2 | 50.9 µM
80 | CCOC(=O)c1sc(=NC(=O)c2ccco2)n(C)c1C | 46.5 µM
81 | Cc1ccccc1C(=O)Oc1cccc2c(O)cccc12 | 13.8 µM
82 | Cc1ccc(-c2nn(-c3ccccc3)cc2NC(=O)CCl)cc1 | 26.7 µM
83 | O=C(Nc1ccc(-c2ccc(N3CCCCC3)nn2)cc1)c1ccco1 | 5.82 µM
84 | COc1ccc(C(C[N+](=O)[O-])c2c(-c3ccccc3)cc3ccccn23)cc1 (stereo not given) | 9.28 µM
85 | CCOc1ccc(N=C(C)C2=C(O)c3ccccc3C2=O)cc1 | 26.4 µM
86 | Cc1ccc(SCC(=O)OCn2nnc3ccccc3c2=O)cc1C | 15.6 µM
87 | Nc1cc([N+](=O)[O-])cc2oc(-c3ccccc3)cc12 | 23.9 µM
88 | O=C(c1cc(-c2ccc(O)cc2)on1)N1CCc2ccccc2C1 | 17.1 µM
89 | Oc1ccccc1C1NN=C(c2ccccc2)S1 (stereo not given) | > 100 µM (inactive)
90 | O=C(Nc1ccc(-c2cn3ccccc3n2)cc1)c1cccs1 | > 100 µM (inactive)
91 | CN1CCc2nc3sc(C(=O)C45CC6CC(CC(C6)C4)C5)c(N)c3cc2C1 | 86.3 µM
92 | C[C@@]12C(=O)Nc3ccc(Cl)cc3C(=O)N1[C@H]1c3ccccc3OC[C@@H]1[C@@H]2c1ccccc1 | 3.46 µM
93 | O=c1c(O)c(-c2ccccc2)oc2cc(O)cc(O)c12 | 35.5 µM
94 | Cc1cccc(C(=O)Oc2cccc3c(O)cccc23)c1 | 8.12 µM
95 | O=C1Nc2ccccc2/C1=C/c1ccccc1Cl | 8.06 µM
96 | O=c1oc(-c2ccc(Br)o2)nc2ccccc12 | 8.59 µM
97 | CC(C)(C)c1csc(NC(=O)c2ccc(Br)o2)n1 | 16.7 µM
98 | Cc1ccc2nc(N3CCN(C=O)CC3)nc(-c3ccccc3)c2c1 | 9.88 µM
99 | COc1cc(C(=O)N/N=C/c2coc3ccc(Cl)cc3c2=O)ccc1O | 6.59 µM
100 | Oc1ccc(/C=N/Nc2cccc(Cl)n2)c(O)c1 | 14.9 µM

Row | SMILES | IC50
101 | OCCOCCNc1ncnc2c1c(-c1ccccc1)cn2-c1ccccc1 | 11.7 µM
102 | COCCNC(=O)/C(C#N)=C/c1ccc(OCc2ccc(F)cc2)cc1 | 11.3 µM
103 | O=C(Nc1ccc(C(=O)N2CCCc3ccccc32)cc1)c1cccs1 | 15.2 µM
104 | c1ccc2[nH]c(-c3ccc4c(c3)OCO4)nc2c1 | 12.4 µM
105 | O=C(N/N=C/C(Cl)=C\c1ccccc1)c1cccs1 | 59.1 µM
106 | COC(=O)c1ccc(C(=O)OC)c(NC(=O)CSc2cccc[n+]2[O-])c1 | 10.6 µM
107 | COc1cccc(Nc2nc(-c3ccccc3)nc3ccccc23)c1 | 7.48 µM
108 | O=c1cc(C(Cl)(Cl)Cl)oc2c1ccc1ccccc12 | 63.8 µM
109 | Fc1ccccc1-c1cc2cc3c(cc2cn1)OCO3 | 25 µM
110 | COCCNC(=O)/C(C#N)=C/c1ccc(OCc2ccccc2)cc1 | 16.6 µM
111 | O=CN(/C=C1\Sc2ccccc2C1=O)Cc1ccccc1 | 15.5 µM
112 | CSc1nnc(C(C)(C)C)c(=O)n1/N=C/c1ccccc1 | 56.6 µM
113 | CC(C)(C)c1csc(NC(=O)c2ccc(Cl)s2)n1 | 24.6 µM
114 | O=C(c1cccnc1)C1Cc2ccccc2C1=O (stereo not given) | 27.8 µM
115 | CC1CCc2c(c3ccccc3n2C(=O)CCl)C1 (stereo not given) | 5.12 µM
116 | Cc1nn(CC(=O)Nc2nc3ccccc3s2)c(C)c1[N+](=O)[O-] | 18.4 µM
117 | O=C(N/N=C/C=C\c1ccco1)c1cccs1 | 70 µM
118 | C/C(=N\Nc1ccc([N+](=O)[O-])cc1)c1ccc(O)cc1 | 2.32 µM
119 | O=C(Nc1ccc2nc(-c3ccc(Br)o3)[nH]c2c1)c1cccs1 | 51 µM
120 | O=C(Nc1nc2ccccc2s1)C1CCCN1S(=O)(=O)c1ccc(Cl)cc1 (stereo not given) | 49.3 µM
121 | Cn1cccc1-c1nc2ccc(NC(=O)c3cccs3)cc2[nH]1 | 28.2 µM
122 | CNC(=S)N/N=C/c1cc(Br)cc(Br)c1O | 8.2 µM
123 | Cc1ccn2cc(C(=O)Nc3ccc4c(c3)OCCO4)nc2c1 | > 100 µM (inactive)
124 | COc1ccc(CCN(/C=C2\Sc3ccccc3C2=O)C(C)=O)cc1OC | 26.3 µM
125 | O=C(N/N=C/C(Br)=C/c1ccccc1)c1cccs1 | 8.5 µM
